Reference: patent US12559529B2, “NPY2 receptor agonists” (Boehringer Ingelheim International GmbH, priority 2019, dated 2026)

Columns and labels:
normal NMRI mice = experiment: Effect on acute food intake in normal NMRI mice; type: in vivo; details: male NMRI mice, 10 nmol/kg subcutaneously once
Summary of the method: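 Male NMRI mice acclimatized in an HM-2 real-time food intake monitoring system, fasted 6 h before dark phase. Single subcutaneous dose of 10 nmol/kg peptide given 1 h before dark; n=7-8. Food intake expressed as % of vehicle group (50 mM phosphate pH7, 5% Mannitol).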

[1] = biological target: T1, Human Neuropeptide Y2 Receptor (Homo sapiens, UniProt P49146); experiment: Radioligand binding competition assay (RLB); details: Table 3; human 125I-PYY (1-36) 0.02 nM, Y2 receptor membranes; read-out: Ki
T1 construct: purchased CHEMICON HTS066M
T1 sequence (P49146 1-381): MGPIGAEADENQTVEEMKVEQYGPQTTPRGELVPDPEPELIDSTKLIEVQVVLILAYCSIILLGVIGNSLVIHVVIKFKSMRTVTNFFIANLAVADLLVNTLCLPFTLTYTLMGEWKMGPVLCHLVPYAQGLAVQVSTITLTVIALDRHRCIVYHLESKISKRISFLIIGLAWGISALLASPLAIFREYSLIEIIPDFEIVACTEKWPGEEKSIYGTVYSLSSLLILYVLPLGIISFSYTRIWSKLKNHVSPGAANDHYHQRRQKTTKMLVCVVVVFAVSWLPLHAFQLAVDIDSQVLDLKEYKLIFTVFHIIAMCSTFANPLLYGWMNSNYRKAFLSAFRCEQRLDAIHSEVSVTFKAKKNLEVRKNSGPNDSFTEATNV
Summary of the method: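 Membranes from cells expressing human Y2 receptor (0.5 μg protein/well) were incubated with radioligand and serially diluted peptides in 50 mM HEPES, 5 mM MgCl2, 1 mM CaCl2, 0.2% ovalbumin, pH 7.4, for 2 h at room temperature with shaking. Bound radioactivity was collected by filtration and counted; IC50 from sigmoidal nonlinear regression.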

| SMILES | Acute Food Intake 24 h [% vehicle] (normal NMRI mice) | Ki [1] |
| --- | --- | --- |
| CC(C)CC(=O)N[C@@H](C)C(=O)N1CCC[C@H]1C(=O)N[C@@H](CCC(=O)O)C(=O)N[C@@H](CCCCNC(=O)COCCOCCNC(=O)COCCOCCNC(=O)CC[C@H](NC(=O)CCCCCCCCCCCCCCCCC(=O)O)C(=O)O)C(=O)N1CCC[C@H]1C(=O)N[C@@H](CCC(=O)O)C(=O)N[C@@H](CCC(=O)O)C(=O)N[C@@H](CC(=O)O)C(=O)N[C@@H](CO)C(=O)N[C@@H](CCC(=O)O)C(=O)N1CCC[C@H]1C(=O)N[C@@H](CCC(=O)O)C(=O)N[C@@H](CCC(=O)O)C(=O)N[C@@H](CC(C)C)C(=O)N[C@@H](CCC(N)=O)C(=O)N[C@@H](CCCNC(=N)N)C(=O)N[C@@H](Cc1ccc(O)cc1)C(=O)N[C@@H](Cc1ccc(O)cc1)C(=O)N[C@H](C(=O)N[C@@H](CO)C(=O)N[C@@H](CC(C)C)C(=O)N[C@@H](CCCNC(=N)N)C(=O)N[C@@H](Cc1c[nH]cn1)C(=O)N[C@@H](Cc1ccc(O)cc1)C(=O)N[C@@H](Cc1ccc(O)cc1)C(=O)N[C@@H](CC(N)=O)C(=O)N[C@@H](Cc1c[nH]c2ccccc12)C(=O)N[C@@H](CC(C)C)C(=O)N[C@H](C(=O)N[C@@H](CCCNC(=N)N)C(=O)N[C@@H](CCC(N)=O)C(=O)N[C@@H](CCCNC(=N)N)C(=O)N[C@@H](Cc1ccc(O)cc1)C(N)=O)[C@@H](C)O)C(C)C [Compound 209, N{alpha-4}-(3-methylbutanoyl)-N{epsilon-7}-[2-(2-{2-[2-(2-{2-[(4S)-4-carboxy-4-(17-carboxyheptadecanamido)butanamido]ethoxy}ethoxy)acetamido]ethoxy}ethoxy)acetamido]-[4A,7K,9E,12S,13E,18Q,22V,28Y,30W,31L]hPYY (4-36)] | 50 % vehicle | 8.07 nM |
| CC[C@H](C)[C@H](NC(=O)[C@H](CCC(=O)O)NC(=O)[C@H](CCC(=O)O)NC(=O)[C@@H]1CCCN1C(=O)[C@H](CO)NC(=O)[C@H](C)NC(=O)[C@H](CCC(=O)O)NC(=O)[C@H](CCC(=O)O)NC(=O)[C@H](CCC(=O)O)NC(=O)[C@@H]1CCCN1C(=O)[C@H](CCCCNC(=O)COCCOCCNC(=O)COCCOCCNC(=O)CC[C@H](NC(=O)CCCCCCCCCCCCCCCCC(=O)O)C(=O)O)NC(=O)[C@H](CCC(=O)O)NC(=O)[C@@H]1CCCN1C(=O)[C@H](C)NC(=O)CC(C)C)C(=O)N[C@@H](CCC(N)=O)C(=O)N[C@@H](CCCNC(=N)N)C(=O)N[C@@H](Cc1ccc(O)cc1)C(=O)N[C@@H](Cc1ccc(O)cc1)C(=O)N[C@H](C(=O)N[C@@H](CO)C(=O)N[C@@H](CC(C)C)C(=O)N[C@@H](CCCNC(=N)N)C(=O)N[C@@H](Cc1c[nH]cn1)C(=O)N[C@@H](Cc1ccc(O)cc1)C(=O)N[C@@H](Cc1ccc(O)cc1)C(=O)N[C@@H](CC(N)=O)C(=O)N[C@@H](Cc1c[nH]c2ccccc12)C(=O)N[C@@H](CC(C)C)C(=O)N[C@H](C(=O)N[C@@H](CCCNC(=N)N)C(=O)N[C@@H](CCC(N)=O)C(=O)N[C@@H](CCCNC(=N)N)C(=O)N[C@@H](Cc1ccc(O)cc1)C(N)=O)[C@@H](C)O)C(C)C [Compound 241, N{alpha-4}-(3-methylbutanoyl)-N{epsilon-7}-[2-(2-{2-[2-(2-{2-[(4S)-4-carboxy-4-(17-carboxyheptadecanamido)butanamido]ethoxy}ethoxy)acetamido]ethoxy}ethoxy)acetamido]-[4A,7K,9E,11E,17I,18Q,22V,28Y,30W,31L]hPYY (4-36)] | 45 % vehicle | 2.95 nM |
| CC(C)CC(=O)N[C@@H](C)C(=O)N1CCC[C@H]1C(=O)N[C@@H](CCC(=O)O)C(=O)N[C@@H](CCCCNC(=O)COCCOCCNC(=O)COCCOCCNC(=O)CC[C@H](NC(=O)CCCCCCCCCCCCCCCCC(=O)O)C(=O)O)C(=O)N1CCC[C@H]1C(=O)N[C@@H](CCC(=O)O)C(=O)N[C@@H](CCC(=O)O)C(=O)N[C@@H](CC(=O)O)C(=O)N[C@@H](C)C(=O)N[C@@H](CCC(=O)O)C(=O)N1CCC[C@H]1C(=O)N[C@@H](C)C(=O)N[C@@H](CCC(=O)O)C(=O)N[C@@H](CC(C)C)C(=O)N[C@@H](CCC(N)=O)C(=O)N[C@@H](CCCNC(=N)N)C(=O)N[C@@H](Cc1ccc(O)cc1)C(=O)N[C@@H](Cc1ccc(O)cc1)C(=O)N[C@H](C(=O)N[C@@H](CO)C(=O)N[C@@H](CC(C)C)C(=O)N[C@@H](CCCNC(=N)N)C(=O)N[C@@H](Cc1c[nH]cn1)C(=O)N[C@@H](Cc1ccc(O)cc1)C(=O)N[C@@H](Cc1ccc(O)cc1)C(=O)N[C@@H](CC(N)=O)C(=O)N[C@@H](Cc1c[nH]c2ccccc12)C(=O)N[C@@H](CC(C)C)C(=O)N[C@H](C(=O)N[C@@H](CCCNC(=N)N)C(=O)N[C@@H](CCC(N)=O)C(=O)N[C@@H](CCCNC(=N)N)C(=O)N[C@@H](Cc1ccc(O)cc1)C(N)=O)[C@@H](C)O)C(C)C [Compound 244, N{alpha-4}-(3-methylbutanoyl)-N{epsilon-7}-[2-(2-{2-[2-(2-{2-[(4S)-4-carboxy-4-(17-carboxyheptadecanamido)butanamido]ethoxy}ethoxy)acetamido]ethoxy}ethoxy)acetamido]-[4A,7K,9E,13E,15A,18Q,22V,28Y,30W,31L]hPYY (4-36)] | 49 % vehicle | 1.84 nM |
